Results published in article PMC7002685, “Inhibition of vascular calcification by inositol phosphates derivatized with ethylene glycol oligomers” (Nature Communications, 2020).
Where “and” joins values, the source holds several entries; their conditions need not be identical. Identical values can stand only once.

Experiments:
[1] = molecular target: T1, Muscarinic M1 (Homo sapiens, UniProt P11229); test: Off-target 252610; type: binding
T1 construct: purchased Eurofins Panlabs Discovery Services Taiwan, Ltd
Description: (§1) The potential off-target activity of 10 µM (OEG2)2-IP4 was assessed against a panel of 87 enzymes, receptors, or ion channels that are used in standard safety pharmacology screens.
(§2) 3.2. Off-target screening assay
(§3) The experiments were conducted by a contract research organization (Eurofins Panlabs Discovery Services Taiwan, Ltd.) and details on the respective assays can be retrieved via the catalog number provided in Supplementary Table 11 from the company’s webpage
(§4) (https://www.eurofinsdiscoveryservices.com/). […]
(§5) At sacrifice the left tibia of animals of the rat model with dietary adenine/high-phosphate-induced uremia and VC was collected, fixed with 70% v/v EtOH and embedded in methyl methacrylate. The trabecular bone compartment is known to be the most metabolic active i.e. actively re-structured bone compartment in CKD. Therefore, histomorphometric and micro-computed tomography (µCT) analysis of bone was performed on the trabecular compartment. Tibial sections were Goldner-stained for histomorphometric analysis of the proximal metaphysis using the AxioVision Release 4.5 software, as […]
(§6) described previously5. […]

[2] = molecular target: T2, Monoamine Oxidase MAO-B (Homo sapiens, UniProt P27338); test: Off-target 140120; type: biochemical
T2 construct: purchased Eurofins Panlabs Discovery Services Taiwan, Ltd
Description: as §1, §2, §3, §4, §5, §6

[3] = tested on: Calcium Channel L-Type, Phenylalkylamine; test: Off-target 215000; type: binding, Rat; conditions: 10 µM
Description: as §1, §2
(§7) The experiments were conducted by a contract research organization (Eurofins Panlabs Discovery
(§8) Services Taiwan, Ltd.) and details on the respective assays can be retrieved via the catalog number
(§9) provided in Supplementary Table 11 from the company’s webpage
as §4

[4] = In vitro ionized human serum calcium; type: physicochemical
Description: One potential side effect of inositol phosphate-based drugs is toxicity due to chelation of ionized serum calcium. […] At 100 µM (OEG2)2-IP4, 96 ± 2% of control serum-ionized calcium was measured.
To assess reduction in ionized serum calcium, increasing concentrations of test compounds were incubated in human serum (Human AB serum, off-the-clot, HSER-ABPM; LuBioScience GmbH, Zurich, Switzerland) at RT and free ionized calcium levels were measured subsequently by the o-cresolphthalein method using the calcium colorimetric assay.

[5] = molecular target: T3, Cholinesterase, Acetyl, ACES (Homo sapiens, UniProt P22303); test: Off-target 104010; type: biochemical
T3 construct: purchased Eurofins Panlabs Discovery Services Taiwan, Ltd
Description: as §1, §2, §7, §8, §9, §4

[6] = VSMC viability (MTS), compounds only; type: cell-based, human; conditions: human, compound only, read-out: VSMC viability (MTS), % of medium control
[7] = tested on: TNFα release from THP-1-derived macrophages; test: TNFα in macrophage supernatants after CPP2 and compounds; type: cell-based, human; conditions: for TNFα concentration in macrophage supernatants: 24 h, unit not given
Description: Macrophage accumulation and inflammation coincide with the initial phase of calcification. To this end, VSMCs and THP-1-derived macrophages were exposed to CPP2-supplemented medium. CPP2 prepared from human serum as described previously[61] (Supplementary Figs. 6 and 7), induced a pronounced VSMC monolayer calcification after 48 h, which was decreased by (OEG2)2-IP4 in a dose-dependent fashion, and the effect became significant at 10 µM (Fig. 3e). […] Both H2O2 (proxy for oxidative stress) and tumor necrosis factor-alpha (TNF-α) (proxy for inflammatory response) levels were assayed in the VSMC culture supernatants subsequent to CPP2 treatment with and without compounds[30]. However, no increase in H2O2 nor TNF-α compared to control could be detected in either assay. For the CPP-induced VSMC calcification assay (Fig. 3e) a roughly 10-fold higher concentration of (OEG2)2-IP4 was necessary to achieve similar activity as in the CaP-induced VSMC calcification assay (Fig. 3b). […] In the CaP assay, low inhibitor concentration may be sufficient to inhibit crystal nucleation, whereas for the CPP assay higher inhibitor concentrations may be needed to achieve sufficient particle stabilization by chemisorption of inhibitor onto CPPs. Similar results have been reported for hydrogen sulfide in the context of VC[62],[64]. […] An increase in the TNFα levels in the cell culture supernatants was not observed for (OEG2)2-IP4 with (Fig. 3h) and without (Supplementary Fig. 10) combined CPP2 treatment.
THP-1 cells were plated at a density of 200,000 cells/well in a 24-well plate, differentiated as stated above, and subsequently treated with or without CPP2 (50 μg Ca/mL) in complete medium with or without test compounds (3, 10, 30, 100 μM) for 24 h at 37 °C, 5% CO2.
Human TNF-α was assayed in cell culture supernatants using commercial multiplex immunoassay kits (U-Plex of TNF-α (custom-made multiplex plate) and Human TNF- Kit (K151QWD-1), both from MesoScaleDiscovery, Rockville, MD, USA), and corrected for total protein content using the Micro BCA^TM Protein Assay Kit.

[8] = tested on: Glutamate, NMDA, Phencyclidine; test: Off-target 233000; type: binding, Rat; conditions: 10 µM
Description: as §1, §2, §3, §4, §5, §6

T2 sequence (P27338 whole entry): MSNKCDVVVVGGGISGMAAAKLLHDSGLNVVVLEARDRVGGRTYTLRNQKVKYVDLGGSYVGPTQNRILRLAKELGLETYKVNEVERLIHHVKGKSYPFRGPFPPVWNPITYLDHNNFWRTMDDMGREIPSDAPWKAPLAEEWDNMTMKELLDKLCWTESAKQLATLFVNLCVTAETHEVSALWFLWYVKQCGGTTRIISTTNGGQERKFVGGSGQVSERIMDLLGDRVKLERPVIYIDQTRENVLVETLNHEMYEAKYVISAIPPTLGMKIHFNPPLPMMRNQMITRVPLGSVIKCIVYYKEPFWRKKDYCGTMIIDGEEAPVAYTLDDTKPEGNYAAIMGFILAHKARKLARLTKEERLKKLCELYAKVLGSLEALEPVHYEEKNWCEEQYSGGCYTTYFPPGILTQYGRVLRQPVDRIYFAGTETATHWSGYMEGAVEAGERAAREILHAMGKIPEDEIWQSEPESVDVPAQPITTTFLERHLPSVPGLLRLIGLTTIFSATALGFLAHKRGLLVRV
T1 sequence (P11229 whole entry): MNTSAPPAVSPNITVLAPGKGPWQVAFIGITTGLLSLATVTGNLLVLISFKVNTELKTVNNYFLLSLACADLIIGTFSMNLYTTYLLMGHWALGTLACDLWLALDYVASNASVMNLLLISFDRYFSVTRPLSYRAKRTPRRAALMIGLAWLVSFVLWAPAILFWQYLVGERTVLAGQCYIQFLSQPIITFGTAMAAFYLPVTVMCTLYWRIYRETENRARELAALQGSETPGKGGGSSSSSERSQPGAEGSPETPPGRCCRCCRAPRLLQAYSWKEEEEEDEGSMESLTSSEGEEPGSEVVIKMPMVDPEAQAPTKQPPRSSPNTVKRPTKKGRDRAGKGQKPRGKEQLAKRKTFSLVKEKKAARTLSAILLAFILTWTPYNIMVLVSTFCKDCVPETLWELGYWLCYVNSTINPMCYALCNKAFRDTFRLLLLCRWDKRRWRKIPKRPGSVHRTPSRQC
T3 sequence (P22303 32-614): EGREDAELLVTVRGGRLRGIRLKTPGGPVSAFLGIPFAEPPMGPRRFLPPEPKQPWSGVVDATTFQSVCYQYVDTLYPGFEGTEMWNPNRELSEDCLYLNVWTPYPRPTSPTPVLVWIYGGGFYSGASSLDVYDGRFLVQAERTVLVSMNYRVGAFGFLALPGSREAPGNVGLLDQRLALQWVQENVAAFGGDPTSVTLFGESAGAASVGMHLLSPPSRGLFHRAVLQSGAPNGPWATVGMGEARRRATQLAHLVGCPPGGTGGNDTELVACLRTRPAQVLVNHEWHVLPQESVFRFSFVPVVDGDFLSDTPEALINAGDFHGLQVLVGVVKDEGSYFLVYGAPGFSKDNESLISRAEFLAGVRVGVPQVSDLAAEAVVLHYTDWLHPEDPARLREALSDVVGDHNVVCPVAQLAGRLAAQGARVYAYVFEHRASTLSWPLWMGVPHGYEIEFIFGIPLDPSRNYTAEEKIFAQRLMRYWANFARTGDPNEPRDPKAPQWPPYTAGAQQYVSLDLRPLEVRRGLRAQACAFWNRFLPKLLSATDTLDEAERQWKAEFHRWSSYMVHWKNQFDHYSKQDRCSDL

SMILES: COCCOCCO[C@@H]1[C@@H](OP(=O)(O)O)[C@H](OCCOCCOC)[C@@H](OP(=O)(O)O)[C@@H](OP(=O)(O)O)[C@H]1OP(=O)(O)O [(OEG2)2-IP4, 4,6-Di-O-(methoxy-diethyleneglycol)-myo-inositol-1,2,3,5-tetrakis(phosphate)]
- inhibition at 10 µM [1]: -6%
- inhibition at 10 µM [2]: 0%
- % Inhibition [3]: -4%
- concentration from which difference to IP6 in decrease of serum-ionized calcium became significant [4]: ≥ 600 µM
- inhibition at 10 µM [5]: 5%
- viability at 1 µM ([6]; 1 µM): 108%
- viability at 10 µM ([6]; 10 µM): 106%
- TNFα concentration in macrophage supernatants ([7]; 3 µM + CPP2 50 µg Ca/mL, replicates Fig. 3h): 169.13 and 90.77 and 60.49
- TNFα concentration in macrophage supernatants ([7]; 10 µM + CPP2 50 µg Ca/mL): 111.79 and 105.92 and 63.72
- TNFα concentration in macrophage supernatants ([7]; 30 µM + CPP2 50 µg Ca/mL): 131.34 and 98.11 and 72.68
- increase in TNFα levels in supernatants ([7]; with combined CPP2 treatment): not observed
- % Inhibition [8]: 7%
